In assay [1] the target is T1, Serine/threonine-protein kinase PLK4 (Homo sapiens, UniProt O00444).
T1 sequence (O00444 whole entry): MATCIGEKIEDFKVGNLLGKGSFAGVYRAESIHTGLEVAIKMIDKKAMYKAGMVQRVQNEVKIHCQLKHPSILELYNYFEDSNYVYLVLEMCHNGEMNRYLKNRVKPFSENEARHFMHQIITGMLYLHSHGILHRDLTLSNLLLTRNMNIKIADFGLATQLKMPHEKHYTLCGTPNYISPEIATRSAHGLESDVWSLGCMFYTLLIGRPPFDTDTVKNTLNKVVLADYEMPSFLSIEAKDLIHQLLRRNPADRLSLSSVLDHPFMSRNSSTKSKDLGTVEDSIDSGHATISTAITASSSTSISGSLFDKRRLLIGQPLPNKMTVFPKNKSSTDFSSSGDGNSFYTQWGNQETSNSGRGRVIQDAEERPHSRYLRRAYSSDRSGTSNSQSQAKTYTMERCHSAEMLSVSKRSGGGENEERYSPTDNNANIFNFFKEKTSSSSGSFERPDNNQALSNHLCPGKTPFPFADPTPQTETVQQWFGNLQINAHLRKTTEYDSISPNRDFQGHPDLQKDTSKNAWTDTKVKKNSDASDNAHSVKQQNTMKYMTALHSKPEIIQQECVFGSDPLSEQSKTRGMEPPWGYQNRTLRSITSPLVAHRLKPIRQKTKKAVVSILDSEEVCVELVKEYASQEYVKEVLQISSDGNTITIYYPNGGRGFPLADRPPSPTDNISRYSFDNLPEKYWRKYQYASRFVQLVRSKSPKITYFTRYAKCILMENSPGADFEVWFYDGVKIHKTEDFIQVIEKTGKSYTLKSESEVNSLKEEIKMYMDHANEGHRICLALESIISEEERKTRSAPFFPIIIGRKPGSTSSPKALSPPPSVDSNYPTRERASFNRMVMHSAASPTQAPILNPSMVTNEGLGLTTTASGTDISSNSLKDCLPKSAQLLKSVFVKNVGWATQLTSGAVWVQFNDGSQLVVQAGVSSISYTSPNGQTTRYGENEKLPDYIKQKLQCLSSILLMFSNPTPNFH

For assay [2], the target named is T2, RNA cytidine acetyltransferase (Homo sapiens, UniProt Q9H0A0).
T2 sequence (Q9H0A0 whole entry): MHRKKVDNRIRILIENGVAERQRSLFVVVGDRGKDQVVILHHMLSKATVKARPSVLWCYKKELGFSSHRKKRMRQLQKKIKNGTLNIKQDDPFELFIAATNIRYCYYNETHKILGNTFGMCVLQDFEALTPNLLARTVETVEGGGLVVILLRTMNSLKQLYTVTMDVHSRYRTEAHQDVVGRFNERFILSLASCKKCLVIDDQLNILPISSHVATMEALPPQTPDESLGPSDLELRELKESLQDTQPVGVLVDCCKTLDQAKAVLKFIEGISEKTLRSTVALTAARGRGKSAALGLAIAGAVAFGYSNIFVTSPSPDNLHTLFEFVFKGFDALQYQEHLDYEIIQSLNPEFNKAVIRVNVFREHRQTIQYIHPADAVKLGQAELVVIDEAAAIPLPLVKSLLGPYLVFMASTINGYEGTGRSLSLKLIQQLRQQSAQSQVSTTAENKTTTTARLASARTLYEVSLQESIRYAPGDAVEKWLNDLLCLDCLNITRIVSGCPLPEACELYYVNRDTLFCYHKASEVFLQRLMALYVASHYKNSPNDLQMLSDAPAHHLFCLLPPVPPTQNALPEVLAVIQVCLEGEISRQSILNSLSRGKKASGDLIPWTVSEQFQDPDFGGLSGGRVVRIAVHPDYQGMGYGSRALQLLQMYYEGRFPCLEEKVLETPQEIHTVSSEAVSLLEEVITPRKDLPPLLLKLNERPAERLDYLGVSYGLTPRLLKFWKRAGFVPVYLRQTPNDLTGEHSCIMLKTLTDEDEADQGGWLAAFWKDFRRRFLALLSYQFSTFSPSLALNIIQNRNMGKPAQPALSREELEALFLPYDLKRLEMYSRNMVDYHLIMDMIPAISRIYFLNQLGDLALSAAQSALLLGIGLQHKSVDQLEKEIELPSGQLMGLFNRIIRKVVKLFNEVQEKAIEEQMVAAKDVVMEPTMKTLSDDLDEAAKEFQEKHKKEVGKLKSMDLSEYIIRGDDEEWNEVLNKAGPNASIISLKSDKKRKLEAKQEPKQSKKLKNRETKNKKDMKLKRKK

In another assay the target is TGF-beta receptor type-2 (Homo sapiens, UniProt P37173).
TGF-beta receptor type-2, sequence (P37173 whole entry): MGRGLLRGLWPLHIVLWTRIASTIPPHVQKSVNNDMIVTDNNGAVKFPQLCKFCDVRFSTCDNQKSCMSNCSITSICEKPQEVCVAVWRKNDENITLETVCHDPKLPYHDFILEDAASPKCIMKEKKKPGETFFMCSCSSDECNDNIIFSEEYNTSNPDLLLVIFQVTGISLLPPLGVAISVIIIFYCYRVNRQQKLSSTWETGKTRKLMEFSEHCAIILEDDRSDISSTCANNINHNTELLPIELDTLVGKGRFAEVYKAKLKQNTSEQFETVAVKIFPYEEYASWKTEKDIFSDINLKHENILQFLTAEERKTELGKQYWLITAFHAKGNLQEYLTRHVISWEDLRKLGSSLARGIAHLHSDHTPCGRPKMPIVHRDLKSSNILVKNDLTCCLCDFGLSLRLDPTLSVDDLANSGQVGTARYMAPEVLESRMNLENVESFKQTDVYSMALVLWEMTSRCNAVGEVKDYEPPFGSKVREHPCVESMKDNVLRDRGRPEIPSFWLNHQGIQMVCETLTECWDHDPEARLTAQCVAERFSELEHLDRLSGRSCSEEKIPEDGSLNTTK
Assay [3] addresses T3, Signal recognition particle receptor subunit alpha (Homo sapiens, UniProt P08240).
T3 sequence (P08240 whole entry): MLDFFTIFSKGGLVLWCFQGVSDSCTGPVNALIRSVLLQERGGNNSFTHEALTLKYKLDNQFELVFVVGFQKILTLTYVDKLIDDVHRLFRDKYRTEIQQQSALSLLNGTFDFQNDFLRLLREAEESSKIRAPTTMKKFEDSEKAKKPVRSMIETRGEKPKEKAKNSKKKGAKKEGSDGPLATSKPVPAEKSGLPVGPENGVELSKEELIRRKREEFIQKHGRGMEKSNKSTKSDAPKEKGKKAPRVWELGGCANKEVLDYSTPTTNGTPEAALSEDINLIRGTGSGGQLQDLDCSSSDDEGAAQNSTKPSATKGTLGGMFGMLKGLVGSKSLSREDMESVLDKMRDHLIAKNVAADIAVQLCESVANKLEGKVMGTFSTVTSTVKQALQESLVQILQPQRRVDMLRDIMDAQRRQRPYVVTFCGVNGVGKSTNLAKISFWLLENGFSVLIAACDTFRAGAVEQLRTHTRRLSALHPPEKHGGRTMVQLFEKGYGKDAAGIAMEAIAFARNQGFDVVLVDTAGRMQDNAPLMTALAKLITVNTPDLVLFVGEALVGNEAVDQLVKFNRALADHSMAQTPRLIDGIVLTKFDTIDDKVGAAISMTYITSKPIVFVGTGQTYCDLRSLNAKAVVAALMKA

Activity calls are given as the source filed them.
Further: in the data inactive means no Kd found up to 30 µM.

Turning to `O=C(c1ccc(F)c(F)c1Nc1ccc(I)cc1F)N1CC(O)([C@@H]2CCCCN2)C1` [COBIMETINIB], the Kd (in assay [1]; in assay [2]; at TGF-beta receptor type-2; in assay [3]) was > 30 µM (inactive) each time.
For the compound `C1=C/COCc2cc(ccc2OCCN2CCCC2)Nc2nccc(n2)-c2cccc(c2)COC/1` [PACRITINIB], the Kd (in assay [1]; in assay [2]; at TGF-beta receptor type-2; in assay [3]) was > 30 µM (inactive) throughout.
With `Cc1ccc(S(=O)(=O)Nc2nc3ccccc3nc2Nc2ccc3nsnc3c2)cc1`, the Kd (in assay [1]; in assay [2]; at TGF-beta receptor type-2; in assay [3]) was > 30 µM (inactive) each time.
As to `Cn1cc(-c2ccc(F)c(C(F)(F)F)c2)nc1C1CCN(c2ncnc3[nH]ncc23)CC1` [LY-2584702], the Kd (in assay [1]; in assay [2]; on TGF-beta receptor type-2; in assay [3]) was > 30 µM (inactive) in each case.
On to `CN(C)C(=O)c1cc2cnc(Nc3ccc(N4CCNCC4)cn3)nc2n1C1CCCC1` [RIBOCICLIB], for which the Kd (in assay [1]; in assay [2]; on TGF-beta receptor type-2; in assay [3]) was > 30 µM (inactive) throughout.
Turning to `O=C(Nc1ccc(-c2ccnc(Nc3ccc(N4CCOCC4)cc3)n2)cc1)C1CCCN1` (stereo not drawn) [XL-019], the Kd in assay [1] was 0.908 µM (active); in assay [2], > 30 µM (inactive); at TGF-beta receptor type-2, > 30 µM (inactive); in assay [3] it was > 30 µM (inactive).
Take `Cc1cc([C@@H](C)Nc2ccccc2C(=O)O)c2nc(N3CCOCC3)cc(=O)n2c1` [AZD-6482]: the Kd (in assay [1]; in assay [2]; at TGF-beta receptor type-2; in assay [3]) was > 30 µM (inactive) each time.
On to `CCN1CCN(Cc2ccc(-c3cc4c(N[C@H](C)c5ccccc5)ncnc4[nH]3)cc2)CC1` [AEE-788], for which the Kd (in assay [1]; in assay [2]; on TGF-beta receptor type-2; in assay [3]) was > 30 µM (inactive) throughout.
Take `CN1N=C(N)c2cn([C@@H]3O[C@H](COP(=O)(O)O)[C@@H](O)[C@H]3O)c3ncnc1c23` [TRICIRIBINE PHOSPHATE]: the Kd (in assay [1]; in assay [2]; on TGF-beta receptor type-2; in assay [3]) was > 30 µM (inactive) in each case.
Take `CC(=O)Nc1cccc(-n2c(=O)n(C3CC3)c(=O)c3c(Nc4ccc(I)cc4F)n(C)c(=O)c(C)c32)c1` [TRAMETINIB]: the Kd (in assay [1]; in assay [2]; on TGF-beta receptor type-2; in assay [3]) was > 30 µM (inactive) each time.
Regarding `COCCNCc1ccc(-c2cc3nccc(Oc4ccc(NC(=S)NC(=O)Cc5ccc(F)cc5)cc4F)c3s2)nc1` [GLESATINIB], the Kd in assay [1] is 1.42 µM (active); in assay [2] it was > 30 µM (inactive); at TGF-beta receptor type-2, > 30 µM (inactive); in assay [3], > 30 µM (inactive).
With `CNS(=O)(=O)Nc1nccc(Cc2c(C)c3ccc(Oc4ncccn4)cc3oc2=O)c1F` [AVUTOMETINIB], the Kd (in assay [1]; in assay [2]; at TGF-beta receptor type-2; in assay [3]) was > 30 µM (inactive) each time.

The values above are taken from ChEMBL document CHEMBL3991601, “The target landscape of clinical kinase drugs” (Science, 2017).
